This note sets out measurements from US4513008A, “Virucidal compositions and therapy” (The Vinoxen Company, Inc., priority 1982, dated 1985).

Values after ≈ are worked out from the molar mass of the structure shown.

The assay has as its system herpes simplex virus type 2 (HSV-2). As to the kind of experiment: In vitro HSV-2 bioassay: virucidal plaque assay (HEP-2 cells). The assay is classed as cell-based, HSV-2 strain 333. As to conditions: for MIC: Human alphaherpesvirus 2, 0.5 h, Table 4 run, 30 min at 25° C., upper limit, dilutions to 1:12800, read-out: MIC (lowest concentration producing a 3-log reduction in virus titer); for virucidal activity against HSV-2 in words: in vitro bioassay. The method, then:
Evidence of the efficacy of the virucides of the invention in vitro has been obtained from bioassay using HSV-2, using a standard assay procedure. Serial dilutions of the compounds were tested for their ability to prevent plaque formation by a stock virus suspension. Reduction of plaque titer by test compounds as compared to mock treated controls was indicative of virucidal activity. […] These represent the upper limit for the drug concentration, since dilutions were not carried beyond 1:6400 and in some cases 1:12800.
Cell Culture. Cell cultures used for the propagation and titration of HSV-2 were the human diploid lung embryonic line MRC-5 and the human malignant epitheloid cell line HEP-2 respectively. Stock monolayer cultures of both cell lines were propagated in Dulbecco's Modified Eagle's medium (DME) supplemented with 10% (V/V) calf serum. Spinner cultures for mass production of HEP-2 cells were grown in Joklik's medium supplemented with 10% (V/V) calf serum and 1% (W/V) pluronic acid. Monolayer cultures of HEP-2 cells for plaque or virucidal assay were seeded into 60 mm dishes in DME supplemented with 10% calf serum and antibiotics. Stock cultures were maintained in antibiotic free medium.
Herpes simplex virus, type 2 (HSV-2) strain 333 was obtained from Dr. John Hughes of the Dept. of Medical Microbiology, College of Medicine, The Ohio State University. Stocks of HSV-2 were prepared in the human diploid embryonic lung cell line, MRC-5. Confluent MRC-5 monolayer cultures in T-75 plastic flasks were washed one time with Hank's and Balanced Salt solution (HBSS) and infected with 0.5 ml of HSV-2, strain 333 stock. Virus was adsorbed for 1 hour at 37° C. Then the culture was refed with 15 ml of DME supplemented with 1% (V/V) calf serum. Virus was harvested 48 hours later when cytopathology was complete. Cultures were frozen and thawed rapidly three times to release cell associated virus, clarified by centrifugation at 10,000×g for 15 minutes at 4° C., aliquoted into 5 ml lots and frozen at -70° C. One lot was taken for virus titration.
HSV-2 was titrated by plaque assay in HEP-2 cells under a semi-solid methyl cellulose overlay. Tenfold serial dilutions of virus were prepared in HBSS and 0.3 ml aliquots of each dilution inoculated onto triplicate HEP-2 cell monolayers in 60 mm plastic petri dishes. Adsorption of virus was for 1 hour at 37° C. Plates were then overlayed with 5 ml of a 1:1 mixture of 2×DME supplemented with 2% (V/V) calf serum and 3% (W/V) methyl cellulose to give a final 1×DME supplemented with 1% calf serum and 1.5% methylcellulose. Infected plates were incubated at 37° C. in a humidified 10% CO2 atmosphere for 48 hours. Virus plaques were visualized by staining with crystal violet and counted under a dissecting microscope. Virus titers were calculated from the plaque numbers by averaging the plaque count and multiplying by 3.3 (0.3 ml plates).
The following procedure was employed to assay virucidal activity in various test samples. Compounds were received as a solution in DMSO and were serially diluted in HBSS as described for each experiment. For the test, 1 ml of each dilution was mixed with 1 ml of a stock virus suspension diluted to approximately 9×10^3 plaque forming units (P.F.U.)/ml. This test mixture was incubated at 25° C. for 30 minutes, then inoculated onto a cell culture (HEP-2) for plaque assay as described previously. Mock treated (virus plus HBSS) controls were included with each test. Any reduction of plaque titer by test compounds as compared to the mock treated control was indicative of virucidal activity.
Samples from RP-HPLC fractionation of the CLOH, produced according to Example 2, as well as purified samples of palmitic, myristic and oleic acids and Vitamin D2, were tested for HSV-2 bioactivity. […] Pure oleic acid was not active in this assay, nor were palmitic and myristic acids and Vitamin D2. […]

[1] abbreviates: Table 3, dilution 1:10, control titer 4.5 × 10^3.
Setting [2] is: Table 3, dilution 1:400, TNTC = too numerous to count.
The mark [3] stands for this setting: Table 3, dilution 1:800, TNTC = too numerous to count.
Where [4] appears, read: Table 3, dilution 1:1600, TNTC = too numerous to count.
Where [5] appears, read: Table 3, dilution 1:3200, TNTC = too numerous to count.
[6] abbreviates: Table 3, dilution 1:6400, TNTC = too numerous to count.
[7] abbreviates: Table 3, dilution 1:12800, TNTC = too numerous to count.
Where [8] appears, read: Table 1, dilution 1:10, TNTC = too numerous to count.
Setting [9] is: Table 1, dilution 1:100, TNTC = too numerous to count.
Where [10] appears, read: Table 1, dilution 1:200, TNTC = too numerous to count.
Setting [11] is: Table 1, dilution 1:400, TNTC = too numerous to count.
The mark [12] stands for this setting: Table 1, dilution 1:800, TNTC = too numerous to count.
[13] abbreviates: Table 1, dilution 1:1600, TNTC = too numerous to count.
Where [14] appears, read: Table 1, dilution 1:3200, TNTC = too numerous to count.
The mark [15] stands for this setting: Table 1, dilution 1:6400, TNTC = too numerous to count.

For `CCC=CCC=CCC=CCC=CCC=CCC=CCCC(=O)OC` [DHA--ME, docasahexaenoic acid, methyl ester], the plaque count reads like this: (Table 3, dilution 1:10) 95; (Table 3, dilution 1:100) 293; under setting [2], “TNTC”; under setting [3], “TNTC”; under setting [4], “TNTC”; under setting [5], “TNTC”. Also, the plaque count result is “TNTC” under setting [6] and “TNTC” under setting [7]. The titer is 3.1 × 10^2 under setting [1]; 9.7 × 10^2 (Table 3, dilution 1:100); “TNTC” (Table 3, dilution 1:400); “TNTC” (Table 3, dilution 1:800); “TNTC” (Table 3, dilution 1:1600); “TNTC” (Table 3, dilution 1:3200). Besides, the titer entry (Table 3, dilution 1:6400) is “TNTC” and the titer result (Table 3, dilution 1:12800) is listed as “TNTC”.
Consider `CC/C=C\C/C=C\C/C=C\C/C=C\C/C=C\CCCC(=O)O` [EPA, eicosapentaenoic acid], for which the MIC was 0.37 µg/mL (≈ 1.22 µM). Besides, where the note is “Table 3, dilution 1:10”, the plaque count is recorded as 0. Under setting [1], this compound showed a titer of 0. In addition, for the setting “Table 3, dilution 1:100”, the plaque count came to 0.5 and the titer was 1.7 × 10^0. Also, the titer (Table 3, dilution 1:400) is 1.7 × 10^0. Besides, the plaque count under setting [2] is reported as 0.5. Also, the titer (Table 3, dilution 1:800) was 1.7 × 10^0. Also, the plaque count under setting [3] is 0.5. Also, the titer (Table 3, dilution 1:1600) was 1.7 × 10^0. For the same compound, the plaque count under setting [4] worked out at 0.5. Moreover, the titer (Table 3, dilution 1:3200) is reported as 1.7 × 10^0. The same compound displayed a plaque count under setting [5] of 0.5. Further, for the setting “Table 3, dilution 1:6400”, the titer was 1.7 × 10^0. Further, the plaque count under setting [6] is listed as 0.5. In addition, under “Table 3, dilution 1:12800”, the titer is recorded as 1.7 × 10^0. The compound further showed a plaque count under setting [7] of 0.5.
Consider `CCC=CCC=CCC=CCC=CCC=CCCCC(=O)OC` [EPA--ME, eicosapentaenoic acid, methyl ester], for which the MIC stood at 540 µg/mL (≈ 1710 µM). The compound further displayed a plaque count (Table 3, dilution 1:10) of 0. Also, the titer under setting [1] turned out to be 0. Also, for the setting “Table 3, dilution 1:100”, the plaque count came to 2.5 and the titer is given as 8.3 × 10^0. For the same compound, where the note is “Table 3, dilution 1:400”, the titer is reported as 2.5 × 10^1. Under setting [2], this compound came in with a plaque count of 7.5. Where the note is “Table 3, dilution 1:800”, the titer is recorded as 4.5 × 10^1. Also, the plaque count under setting [3] stood at 13.5. For the setting “Table 3, dilution 1:1600”, the titer is 6.4 × 10^1. The plaque count under setting [4] is recorded as 19.5. Further, where the note is “Table 3, dilution 1:3200”, the titer is on record as 1.4 × 10^2. This compound registered a plaque count under setting [5] of 42.5. For the setting “Table 3, dilution 1:6400”, the titer is 1.2 × 10^2. Besides, under setting [6], the plaque count stood at 36.5. Moreover, the titer (Table 3, dilution 1:12800) was 2.2 × 10^2. Besides, the plaque count under setting [7] is listed as 66.
`CCCCCCCCCCCCCC(=O)O` [Myristic acid, reference compound]: the “virucidal activity against HSV-2 in words” value (“virucidal activity” below) was “not active”. Moreover, under setting [8], the plaque count result is recorded as “TNTC”. For the same compound, the plaque count entry under setting [9] is recorded as “TNTC”. Moreover, the plaque count result under setting [10] is reported as “TNTC”. Also, under setting [11], the plaque count result was “TNTC”. For the same compound, under setting [12], the plaque count result is “TNTC”. The plaque count entry under setting [13] is given as “TNTC”. Also, under setting [14], the plaque count entry is recorded as “TNTC”. For the same compound, the plaque count result under setting [15] is “TNTC”.
Regarding `CCCCCCCCCCCCCCCC(=O)O` [Palmitic acid, reference compound], the “virucidal activity” value is given as “not active”. For the same compound, the plaque count result under setting [8] is listed as “TNTC”. Further, under setting [9], the plaque count result is listed as “TNTC”. In addition, the plaque count result under setting [10] is “TNTC”. Under setting [11], the plaque count result was “TNTC”. The plaque count entry under setting [12] was “TNTC”. The plaque count entry under setting [13] was “TNTC”. In addition, under setting [14], the plaque count entry is “TNTC”. Further, under setting [15], the plaque count entry was “TNTC”.
On to `C=C1CC[C@H](O)C/C1=C/C=C1\CCC[C@]2(C)[C@@H]([C@H](C)/C=C/[C@H](C)C(C)C)CC[C@@H]12` [Vitamin D2, reference compound], for which the “virucidal activity” value was “not active”. Besides, the plaque count result under setting [8] was “TNTC”. For the same compound, the plaque count entry under setting [9] is reported as “TNTC”. Also, the plaque count result under setting [10] was “TNTC”. Besides, the plaque count result under setting [11] was “TNTC”. For the same compound, under setting [12], the plaque count entry is on record as “TNTC”. Moreover, the plaque count entry under setting [13] is on record as “TNTC”. Moreover, the plaque count entry under setting [14] is recorded as “TNTC”. Further, under setting [15], the plaque count entry is “TNTC”.
